{"source": "patent US6011019A", "about": "“Vasoactive effects and free radical generation by β-amyloid peptides” (University of South Florida, priority 1996, dated 2000)", "key": {"blood vessel (rat aorta)": {"test_system": "blood vessel (rat aorta)", "test": "Vascular response of blood vessel rings in tissue bath (basal tension, β-amyloid induced vasoactivity)", "method": "Freshly excised rat and porcine blood vessels were placed in Kreb's bicarbonate buffer equilibrated with 5% CO2 in O2. The buffer composition consisted of 118.2 mM NaCl, 4.7 mM KCl, 1.2 mM MgSO4, 2.5 mM CaCl2, 1.2 mM NaH2 PO4, 23 mM NaHCO3 and 11.2 mM glucose. After cleaning the vessels free of fat and other adhering tissues, the vessels were cut into ring segments of approximately 3 mm in length. Care was taken not to damage the intimal surface.\nThe endothelium was removed from some preparations by rubbing the inside of the lumen with a metal spatula for six to ten seconds and subsequent rinsing with buffer. The removal of endothelium was confirmed by testing for relaxation to acetylcholine [Furchgott and Zawadzki, 1980].\nThe blood vessel preparations were mounted on stainless steel hooks attached to a force-displacement transducer and equilibrated under the optimum tension of 1.3 g for a period of sixty minutes in a tissue bath (10 ml) containing oxygenated (5% CO2 in O2) Kreb's buffer at 37° C. The buffer was changed every fifteen minutes. After equilibration for sixty minutes the viability of the blood vessel with intact endothelium was established by constricting the blood vessel using phenylephrine ([…]). This dose of phenylephrine elicited 80% of the maximum response. […] The vessel preparations were washed for fifteen minutes before various manipulations as described below.\nReferring to FIG. 10, the arrow indicates the addition of 10^-6 M β-amyloid. The control tissue received no β-amyloid. SOD (150 units/ml) was added thirty seconds prior to the addition of β-amyloid. The maximum contraction induced by β-amyloid was 1.14±0.13 (g) and in presence of SOD the contraction was reduced to 0.04±0.02 (g). Values represent the mean±SEM of five separate experiments."}, "[1]": {"test_system": "endothelial cells in aortic rings", "test": "Electron microscopy of endothelial cell layer in aortic rings", "parameters": "species or system rat", "method": "As shown in FIGS. 14A-F, […], or in presence of β-amyloid (10^-6 M), or SOD (150 units/ml) and β-amyloid.The tissue samples were kept in glutaraldehyde solution at 4° C. until processed and then rinsed with cacodylate buffer. The tissues were postfixed with 1% buffered osmium tetroxide, dehydrated with graded ethanol solutions, and embedded in a mixture of eponaraldite. Ultrathin sections were stained with uranyl acetate and lead citrate and viewed on model 7000 Hitachi transmission electron microscope. The inset bar indicates one micron. The experiment was repeated three or more times with blood vessels from different animals."}}}
{"substance": "β-amyloid", "values": [{"measurement": "maximum contraction induced by β-amyloid", "setting": "blood vessel (rat aorta); 10^-6 M β-amyloid, mean±SEM of five experiments", "result": "1.14 ± 0.13", "unit": "g"}, {"measurement": "duration of contraction/relaxation activity", "setting": "blood vessel (rat aorta); after β-amyloid addition", "result": "fifteen to twenty minutes"}, {"measurement": "initial detectable change: minor relaxation", "setting": "blood vessel (rat aorta); after β-amyloid addition", "result": "< 0.1", "unit": "g"}, {"measurement": "onset of vasoactivity", "setting": "blood vessel (rat aorta); after β-amyloid addition", "result": "within thirty seconds"}, {"measurement": "constriction of the blood vessel", "setting": "blood vessel (rat aorta); increasing concentration of β-amyloid, basal tension, intact endothelium", "result": "constricted the blood vessel in a concentration-dependent manner"}, {"measurement": "endothelium dependence of the constricting effect", "setting": "blood vessel (rat aorta); vessels with and without endothelium", "result": "only occurred in the presence of endothelium"}, {"measurement": "β-amyloid concentration required to induce the morphological changes", "setting": "[1]; incubation periods of fifteen minutes", "result": "> 5×10^-7 M"}, {"measurement": "endothelial cell morphology after incubation", "setting": "[1]; β-amyloid 10^-6 M, 37° C., thirty minutes", "result": "induced significant damage to the endothelial cells"}]}
